Tests used:
[1] = molecular target: T1, Human PDGFRα, cytoplasmic domain (GST-PDGFRα) (Homo sapiens, UniProt P16234); test: Human PDGFRα biochemical inhibition assay (off-chip Mobility Shift Assay)
T1 construct: made in house

[2] = molecular target: T2, Human PDGFRβ, cytoplasmic domain (GST-PDGFRβ) (Homo sapiens, UniProt P09619); test: Human PDGFRβ biochemical inhibition assay (off-chip Mobility Shift Assay)
T2 construct: made in house
Summary of the method: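 GST-tagged cytoplasmic domain (aa 557-1106) from baculovirus was incubated 1 h at room temperature with compound, CSKtide, ATP at Km and Mg²⁺ in HEPES buffer, pH 7.5. Phosphorylated and unphosphorylated peptide were separated by off-chip mobility shift, and the product ratio P/(P+S) gave percent inhibition.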

T2 sequence (P09619 with tags, fused parts or gaps): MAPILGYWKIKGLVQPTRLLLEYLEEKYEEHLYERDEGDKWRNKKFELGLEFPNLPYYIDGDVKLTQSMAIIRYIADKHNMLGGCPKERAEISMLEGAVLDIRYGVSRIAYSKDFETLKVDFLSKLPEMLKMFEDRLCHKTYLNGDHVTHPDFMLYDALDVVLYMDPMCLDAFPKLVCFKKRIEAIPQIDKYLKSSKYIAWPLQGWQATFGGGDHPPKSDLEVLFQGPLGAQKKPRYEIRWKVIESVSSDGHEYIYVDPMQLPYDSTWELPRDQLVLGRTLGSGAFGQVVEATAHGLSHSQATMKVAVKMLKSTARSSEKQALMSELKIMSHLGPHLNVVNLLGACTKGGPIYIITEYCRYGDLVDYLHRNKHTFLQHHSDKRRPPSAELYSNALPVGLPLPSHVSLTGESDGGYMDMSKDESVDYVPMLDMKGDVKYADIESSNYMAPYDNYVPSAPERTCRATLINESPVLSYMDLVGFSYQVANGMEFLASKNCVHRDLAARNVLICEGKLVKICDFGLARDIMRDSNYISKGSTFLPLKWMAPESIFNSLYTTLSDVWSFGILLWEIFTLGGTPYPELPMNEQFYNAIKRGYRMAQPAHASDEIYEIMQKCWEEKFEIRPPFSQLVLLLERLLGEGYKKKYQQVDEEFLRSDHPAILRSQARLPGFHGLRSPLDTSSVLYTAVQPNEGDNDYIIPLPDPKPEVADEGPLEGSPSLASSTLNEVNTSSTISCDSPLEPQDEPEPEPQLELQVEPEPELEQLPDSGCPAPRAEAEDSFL
T1 sequence (P16234 550-1089 T674I): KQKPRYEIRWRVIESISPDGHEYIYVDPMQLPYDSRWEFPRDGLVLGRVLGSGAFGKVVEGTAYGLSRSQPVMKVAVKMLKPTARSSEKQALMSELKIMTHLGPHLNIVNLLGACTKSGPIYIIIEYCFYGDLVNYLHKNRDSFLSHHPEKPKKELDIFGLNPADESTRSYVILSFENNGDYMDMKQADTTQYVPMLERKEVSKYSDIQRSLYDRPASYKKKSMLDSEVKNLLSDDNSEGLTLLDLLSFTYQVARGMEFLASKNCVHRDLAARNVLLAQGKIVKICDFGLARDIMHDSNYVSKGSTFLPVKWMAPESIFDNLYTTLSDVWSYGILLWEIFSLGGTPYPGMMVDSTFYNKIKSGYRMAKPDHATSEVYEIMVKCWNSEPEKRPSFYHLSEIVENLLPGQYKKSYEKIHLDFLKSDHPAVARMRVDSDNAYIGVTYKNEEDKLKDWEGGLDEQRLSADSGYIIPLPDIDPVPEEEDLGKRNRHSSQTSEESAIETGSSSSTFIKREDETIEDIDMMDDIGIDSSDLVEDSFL

| IC50 [1] [nM] | IC50 [2] [nM] | SMILES |
| --- | --- | --- |
| < 300 | < 300 | CCn1cc2ncc(N[C@@H](C)c3cc(NC(=O)Cc4ccccc4)ccc3F)nc2n1 [Compound 637, (S)-N-(3-(1-((2-ethyl-2H-pyrazolo[3,4-b]pyrazin-6-yl)amino)ethyl)-4-fluorophenyl)-2-phenylacetamide] |
| < 300 | < 300 | COC(=O)c1ccc(C(=O)Nc2cccc([C@H](C)Nc3cnc4cnn(C)c4n3)c2)cc1Br [Compound 197, methyl (S)-2-bromo-4-((3-(1-((1-methyl-1H-pyrazolo[3,4-b]pyrazin-6-yl)amino)ethyl)phenyl)carbamoyl)benzoate] |
| < 300 | 300 to 1000 | CCn1cc2ncc(N[C@@H](C)c3cccc(NC(=O)c4cnn(C5CC5)c4)c3)nc2n1 [Compound 299, (S)-1-cyclopropyl-N-(3-(1-((2-ethyl-2H-pyrazolo[3,4-b]pyrazin-6-yl)amino)ethyl)phenyl)-1H-pyrazole-4-carboxamide] |
| < 300 | ≥ 1000 | COc1ccc(-n2ccc3ncc(N[C@@H](C)c4cccc(NC(=O)c5cncc(C)c5)c4)cc32)cc1OC [Compound 6, (S)—N-(3-(1-((1-(3,4-dimethoxyphenyl)-1H-pyrrolo[3,2-b]pyridin-6-yl)amino)ethyl)phenyl)-5-methylnicotinamide] |
| < 300 | < 300 | CCn1cc2ncc(N[C@@H](C)c3cc(NC(=O)c4cc(F)c(CN5CC[C@@H](O)C5)c(Cl)c4)ccc3C)nc2n1 [Compound 521, 3-chloro-N-(3-((S)-1-((2-ethyl-2H-pyrazolo[3,4-b]pyrazin-6-yl)amino)ethyl)-4-methylphenyl)-5-fluoro-4-(((R)-3-hydroxypyrrolidin-1-yl)methyl) benzamide] |
| < 300 | < 300 | CCn1cc2ncc(N[C@@H](C)c3cc(NC(=O)Cc4cc(C)c(C)cn4)ccc3C)nc2n1 [Compound 694, (S)-2-(4,5-dimethylpyridin-2-yl)-N-(3-(1-((2-ethyl-2H-pyrazolo[3,4-b]pyrazin-6-yl)amino)ethyl)-4-methylphenyl) acetamide] |
| < 300 | 300 to 1000 | CCn1cc2ncc(N[C@@H](C)c3cccc(NC(=O)c4ccc(NC(C)C)nc4)c3)nc2n1 [Compound 395, (S)-N-(3-(1-((2-ethyl-2H-pyrazolo[3,4-b]pyrazin-6-yl)amino)ethyl)phenyl)-6-(isopropylamino)nicotinamide] |
| 300 to 1000 | ≥ 1000 | CCn1cc2ncc(N[C@@H](C)c3cccc(NC(=O)c4cnc(-c5cnn(C)c5)s4)c3)nc2n1 [Compound 342, (S)-N-(3-(1-((2-ethyl-2H-pyrazolo[3,4-b]pyrazin-6-yl)amino)ethyl)phenyl)-2-(1-methyl-1H-pyrazol-4-yl) thiazole-5-carboxamide] |
| < 300 | < 300 | Cc1cc(C(=O)Nc2ccc(F)c([C@H](C)Nc3cnc4cnn(C)c4n3)c2)ccc1CN1CCN(C)CC1 [Compound 228, (S)-N-(4-fluoro-3-(1-((1-methyl-1H-pyrazolo[3,4-b]pyrazin-6-yl)amino)ethyl)phenyl)-3-methyl-4-((4-methylpiperazin-1-yl)methyl)benzamide] |
| < 300 | < 300 | C[C@H](Nc1cnc2cnn(C)c2n1)c1cc(NC(=O)c2ccc(C3CC3)nc2)ccc1F [Compound 201, (S)-6-cyclopropyl-N-(4-fluoro-3-(1-((1-methyl-1H-pyrazolo[3,4-b]pyrazin-6-yl)amino)ethyl)phenyl) nicotinamide] |
| 300 to 1000 | 300 to 1000 | CCn1cc2ncc(N[C@@H](C)c3cccc(NC(=O)c4cnc(CN5CC6(COC6)C5)c(Cl)c4)c3)nc2n1 [Compound 503, (S)-6-((2-oxa-6-azaspiro[3.3]heptan-6-yl)methyl)-5-chloro-N-(3-(1-((2-ethyl-2H-pyrazolo[3,4-b]pyrazin-6-yl)amino)ethyl)phenyl)nicotinamide] |
| 300 to 1000 | 300 to 1000 | CCn1cc(C(=O)Nc2cccc([C@H](C)Nc3cnc4cn(CC)nc4n3)c2)cn1 [Compound 297, (S)-1-ethyl-N-(3-(1-((2-ethyl-2H-pyrazolo[3,4-b]pyrazin-6-yl)amino)ethyl)phenyl)-1H-pyrazole-4-carboxamide] |
| < 300 | < 300 | Cc1cc(C(=O)Nc2cccc([C@H](C)Nc3cnc4[nH]cc(-c5cnn(C)c5)c4n3)c2)cnc1N1CCCC1 [Compound 577, (S)-5-methyl-N-(3-(1-((7-(1-methyl-1H-pyrazol-4-yl)-5H-pyrrolo[2,3-b]pyrazin-2-yl)amino)ethyl)phenyl)-6-(pyrrolidin-1-yl)nicotinamide] |
| < 300 | < 300 | C[C@H](Nc1cnc2cnn(C)c2n1)c1cccc(NC(=O)c2cnn(C(C)(C)C)c2)c1 [Compound 148, (S)-1-(tert-butyl)-N-(3-(1-((1-methyl-1H-pyrazolo[3,4-b]pyrazin-6-yl)amino)ethyl)phenyl)-1H-pyrazole-4-carboxamide] |
| < 300 | ≥ 1000 | CCn1cc2ncc(N[C@@H](C)c3cccc(NC(=O)Cc4ccc5c(n4)CCC5)c3)nc2n1 [Compound 718, (S)-2-(6,7-dihydro-5H-cyclopenta[b]pyridin-2-yl)-N-(3-(1-((2-ethyl-2H-pyrazolo[3,4-b]pyrazin-6-yl)amino)ethyl)phenyl)acetamide] |
| < 300 | < 300 | CSc1cc(C(=O)Nc2cccc([C@H](C)Nc3cnc4cnn(C)c4n3)c2)ccc1CN1CCN(C)CC1 [Compound 238, (S)-N-(3-(1-((1-methyl-1H-pyrazolo[3,4-b]pyrazin-6-yl)amino)ethyl)phenyl)-4-((4-methylpiperazin-1-yl)methyl)-3-(methylthio)benzamide] |
| < 300 | ≥ 1000 | CCn1cc2ncc(N[C@@H](C)c3cccc(NC(=O)Cc4ccc5c(n4)CCCC5)c3)nc2n1 [Compound 723, (S)-N-(3-(1-((2-ethyl-2H-pyrazolo[3,4-b]pyrazin-6-yl)amino)ethyl)phenyl)-2-(5,6,7,8-tetrahydroquinolin-2-yl) acetamide] |
| < 300 | < 300 | Cc1cc2ncc(N[C@@H](C)c3cc(NC(=O)c4ccc(OC(F)F)nc4)ccc3F)nc2s1 [Compound 611, (S)-6-(difluoromethoxy)-N-(4-fluoro-3-(1-((6-methylthieno[2,3-b]pyrazin-3-yl)amino)ethyl)phenyl) nicotinamide] |
| < 300 | < 300 | CCn1cc2ncc(N[C@@H](C)c3cccc(NC(=O)c4ccc(CN5CC[C@H](F)C5)c(C)c4)c3)nc2n1 [Compound 493, N-(3-((S)-1-((2-ethyl-2H-pyrazolo[3,4-b]pyrazin-6-yl)amino)ethyl)phenyl)-4-(((S)-3-fluoropyrrolidin-1-yl)methyl)-3-methylbenzamide] |
| < 300 | ≥ 1000 | Cc1cncc(C(=O)Nc2cccc([C@H](C)Nc3cnc4ccn(CCO)c4n3)c2)c1 [Compound 83, (S)-N-(3-(1-((5-(2-hydroxyethyl)-5H-pyrrolo[2,3-6]pyrazin-3-yl)amino)ethyl)phenyl)-5-methylnicotinamide] |
| < 300 | < 300 | CCn1cc2ncc(N[C@@H](C)c3cc(NC(=O)c4ccc(CN5CCN(C)CC5)c(C)c4)ccc3F)nc2n1 [Compound 457, (S)-N-(3-(1-((2-ethyl-2H-pvrazolo[3,4-b]pyrazin-6-yl)amino)ethyl)-4-fluorophenyl)-3 methyl-4-((4-methylpiperazin-1-yl)methyl)benzamide] |
| < 300 | < 300 | COc1ncc(C(=O)Nc2cccc([C@H](C)Nc3cnc4cnn(C)c4n3)c2)cc1C [Compound 128, (S)-6-methoxy-5-methyl-N-(3-(1-((1-methyl-1H-pyrazolo[3,4-b]pyrazin-6-yl)amino)ethyl)phenyl)nicotinamide] |
| < 300 | 300 to 1000 | CCn1cc2ncc(N[C@@H](C)c3cccc(NC(=O)c4cncc(C)c4)c3)nc2n1 [Compound 9, (S)—N-(3-(1-((2-ethyl-2H-pyrazolo[3,4-b]pyrazin-6-yl)amino)ethyl)phenyl)-5-methylnicotinamide] |
| ≥ 1000 | ≥ 1000 | COc1ccc(Cn2ccc3ncc(N[C@@H](C)c4cccc(NC(=O)c5cncc(C)c5)c4)cc32)cc1OC [Compound 81, (S)-N-(3-(1-((1-(3,4-dimethoxybenzyl)-1H-pyrrolo [3,2-b]pyridin-6-yl)amino)ethyl)phenyl)-5-methylnicotinamide] |
| < 300 | < 300 | CCn1cc2ncc(N[C@@H](C)c3cccc(NC(=O)c4cc(Cl)c(Cl)s4)c3)nc2n1 [Compound 357, (S)-4,5-dichloro-N-(3-(1-((2-ethyl-2H-pyrazolo[3,4-b]pyrazin-6-yl)amino)ethyl)phenyl)thiophene-2-carboxamide] |
| < 300 | < 300 | Cc1cc(C(=O)Nc2cccc([C@H](C)Nc3cnc4[nH]cc(-c5cnn(C)c5)c4n3)c2)cnc1C(F)(F)F [Compound 576, (S)-5-methyl-N-(3-(1-((7-(1-methyl-1H-pyrazol-4-yl)-5H-pyrrolo[2,3-b]pyrazin-2-yl)amino)ethyl)phenyl)-6-(trifluoromethyl)nicotinamide] |
| < 300 | < 300 | CCn1cc2ncc(N[C@@H](C)c3cccc(NC(=O)c4ccc(CN5CC[C@H](F)C5)c(Cl)c4)c3)nc2n1 [Compound 484, 3-chloro-N-(3-((S)-1-((2-ethyl-2H-pyrazolo[3,4-b]pyrazin-6-yl)amino)ethyl)phenyl)-4-(((S)-3-fluoropyrrolidin-1-yl)methyl) benzamide] |
| < 300 | < 300 | Cc1cncc(C(=O)Nc2cccc([C@H](C)Nc3cnc4cc(F)c(F)cc4n3)c2)c1 [Compound 36, (S)-N-(3-(1-((6,7-difluoroquinoxalin-2-yl)amino)ethyl)phenyl)-5-methylnicotinamide] |

| SMILES | IC50 [1] [nM] | IC50 [2] [nM] |
| --- | --- | --- |
| CC(C)COc1ncc(C(=O)Nc2cccc([C@H](C)Nc3cnc4cnn(C)c4n3)c2)cc1Cl [Compound 262, (S)-5-chloro-6-isobutoxy-N-(3-(1-((1-methyl-1H-pyrazolo[3,4-b]pyrazin-6-yl)amino)ethyl)phenyl)nicotinamide] | < 300 | < 300 |

Reference: US20230102554A1 (GB002, INC., priority 2019, published 2023)
